One block for each compound: values may come before it.
How the values were obtained:
human tumor cell lines = assay: Enhancement of cell killing by chemotherapeutic drugs (3H-thymidine uptake); assay type: cell-based
Experimental: To test the hypothesis that inhibition of Chk1 potentiates the killing effect of DNA-damaging agents, cells were incubated in the presence of selective Chk1 inhibitors and either irradiation or chemical DNA-damaging agents. Cells plated at a density of 1000-2000 per well in 96-well microtitre plates were grown in RMPI 1640 containing 10% FBS, 100 U/mL penicillin and 100 μg/mL streptomycin for 18 hours at 37° C. in a humidified incubator with 5% CO2. Cells tested included HeLa, ACHN, 786-0, HCT116, SW620, HT29, Colo205, SK-MEL-5, SK-MEL-28, A549, H322, OVCAR-3, SK-OV-3, MDA-MB-231, MCF-7, PC-3, HL-60, K562, and MOLT4. All cell line designations refer to human cell lines and refer to the following:
Cells were treated with media containing chemotherapeutic drugs alone or chemotherapeutic drugs and Compounds 12 and 29. Cells were incubated for approximately 5 days before growth was measured by determination of levels of ^3H-thymidine uptake. Chemotherapeutic drugs included etoposide, doxorubicin, cisplatin, chlorambucil, 5-fluorouracil (5-FU). The drug concentration necessary to inhibit cell growth to 90% of untreated control cells was defined as the GL90. At concentrations less than 100 μM, Compounds 12 and 29 enhanced the killing of 5-FU from 2- to 10-fold.
Compounds 2 and 12 were tested with additional antimetabolites, including methotrexate, hydroxyurea, 2-chloroadenosine, fludarabine, azacytidine, and gemcitibine for an ability to enhance killing of the agents.

[1] = test system: Colo205 and HT29 xenograft tumors; assay: Colon tumor xenograft model; assay type: in vivo, Balb/c (nu/nu) mice; details: i.p. 50, 100 or 150 mg/kg; tumor weight by calipers
Experimental: To test the ability of the Chk1 inhibitors to enhance the killing of tumors by 5-FU in mice, xenograft tumor models using colon tumor cell lines were established. Colo205 and HT29 cells (human colon carcinoma) were used to propagate xenograft tumors in 6-8 week old female […] Balb/c (nu/nu) mice. Mice were maintained in a laminar airflow cabinet under pathogen-free conditions and fed sterile food and water ad libitum. Cell lines were grown to subconfluence in RPMI 1640 media supplemented with 10% FBS, 100 U/mL penicillin, 100 μg/mL streptomycin, and 1.5 mM L-glutamine in a 5% CO2 humidified environment. Single cell suspensions were prepared in CMF-PBS, and cell concentration adjusted to 1×10^8 cells/mL. Mice were inoculated subcutaneously (s.c). on the right flank or right leg with a total of 1×10^7 cells (100 μL).
Mice were randomized (5 mice/group) into four treatment groups and used when tumors reached a weight of 75-100 mg (usually 7-11 days post-inoculation). Tumors were measured with vernier calipers and tumor weights were estimated using the empirically derived formula: tumor weight (mg)=tumor length (mm)×tumor width (mm)^2/3.3. Treatment consisted of i) 100 μL intraperitoneal (i.p). injection of 5-FU at 50 mg/kg, 100 mg/kg, or 150 mg/kg. […] Tumor size was monitored every other day for the duration of the experiment.

Compound: COc1cc(NC(=O)CCNC2CCCC2)ccc1NC(=O)Nc1cnccn1 [Compound 2, 3-cyclopentylamino-N-[3-methoxy-4-(3-pyrazin-2-yl-ureido)phenyl]-propionamide]
enhancement of killing of cells to 5-azacytidine (human tumor cell lines; combination with 5-azacytidine): enhance the killing of cells | enhancement of killing of cells to fludarabine (human tumor cell lines; combination with fludarabine): enhance the killing of cells | enhancement of killing of cells to hydroxyurea (human tumor cell lines; combination with hydroxyurea): enhance the killing of cells | enhancement of killing of cells to methotrexate (human tumor cell lines; combination with methotrexate): enhance the killing of cells

melting point: 168 to 169 °C
Compound: COc1cc(CN)ccc1NC(=O)Nc1cnc(C)cn1 [Compound 342, 1-(4-Aminomethyl-2-methoxy-phenyl)-3-(5-methyl-pyrazin-2-yl)-urea]

Compound: O=c1[nH]cc(F)c(=O)[nH]1 [Compound 5-FU, 5-fluorouracil]
tumor growth [1]: dose-dependent delay in tumor growth

melting point: 142 to 143 °C
Compound: COc1cc(CN(C)Cc2ccccc2)ccc1NC(=O)Nc1cnc(C)cn1 [Compound 340, 1-{4-[(Benzyl-methyl-amino)-methyl]-2-methoxy-phenyl}-3-(5-methyl-pyrazin-2-yl)-urea]

Source: patent publication US7067506B2, “Compounds useful for inhibiting Chk1” (ICOS Corporation, priority 2001, dated 2006)
